Assay results: ChEMBL document CHEMBL3774368, “1,2,4-Triazolyl octahydropyrrolo[2,3-b]pyrroles: A new series of potent and selective dopamine D3 receptor antagonists” (Bioorg Med Chem, 2016)
In brackets after ≈: the same amount, converted by molar mass.

How the values were obtained:
[1] = Efflux ratio of apparent permeability across basolateral to apical side in human Caco2 cells; type: ADME, cell-based; conditions: Caco-2
[2] = Volume of distribution at steady state in portal vein cannulated Sprague-Dawley rat model; conditions: in vivo
in vivo [3] = conditions: Sprague-Dawley, rat, po
Description: Oral bioavailability in portal vein cannulated Sprague-Dawley rat model

[4] = Half life in portal vein cannulated Sprague-Dawley rat model; conditions: in vivo
in vivo [5] = conditions: Sprague-Dawley, rat
Description: Hepatic extraction ratio in portal vein cannulated Sprague-Dawley rat model

[6] = Clearance in portal vein cannulated Sprague-Dawley rat blood; conditions: whole blood
in vitro [7] = conditions: rat, liver microsomes, CLH
[8] = Fraction absorbed in portal vein cannulated Sprague-Dawley rat model; conditions: in vivo
Cytochrome P450 2C19 = Cytochrome P450 2C19 (Homo sapiens, UniProt P33261); assay: Inhibition of recombinant human CYP2C19 expressed in baculosomes preincubated for 10 mins followed by cofactor addition measured every minute for 10 mins using 3-butyryl-7-methoxycoumarin as substrate by CYPEX assay
[9] = Fraction unbound in Sprague-Dawley rat blood
Cytochrome P450 3A4 [10] = molecular target: T1, Cytochrome P450 3A4 (Homo sapiens, UniProt P08684); assay: Inhibition of recombinant human CYP3A4 expressed in baculosomes preincubated for 10 mins followed by cofactor addition measured every minute for 10 mins using diethoxyflourescein as substrate by CYPEX assay
Cytochrome P450 2C9 = Cytochrome P450 2C9 (Homo sapiens, UniProt P11712); assay: Inhibition of recombinant human CYP2C9 expressed in baculosomes preincubated for 10 mins followed by cofactor addition measured every minute for 10 mins using 7-methoxy-4-trifluoromethylcoumarin-3-acetic acid as substrate by CYPEX assay
[11] = Apparent permeability across apical to basolateral side in human Caco2 cells; type: ADME, cell-based; conditions: Caco-2
[12] = molecular target: Muscarinic acetylcholine receptor M3 (Homo sapiens, UniProt P20309); assay: Antagonist activity at recombinant human muscarinic M3 receptor expressed in CHO-K1 cells assessed as inhibition of acetylcholine induced calcium mobilization preincubated for 10 mins followed by acetylcholine addition measured after 1 hr by fluo-4 AM dye-based FLIPR assay; type: functional, cell-based
[13] = molecular target: T2, Muscarinic acetylcholine receptor M1 (Homo sapiens, UniProt P11229); assay: Antagonist activity at recombinant human muscarinic M1 receptor expressed in CHO-K1 cells assessed as inhibition of acetylcholine induced calcium mobilization preincubated for 10 mins followed by acetylcholine addition measured after 1 hr by fluo-4 AM dye-based FLIPR assay; type: functional, cell-based
T2 sequence (P11229 whole entry): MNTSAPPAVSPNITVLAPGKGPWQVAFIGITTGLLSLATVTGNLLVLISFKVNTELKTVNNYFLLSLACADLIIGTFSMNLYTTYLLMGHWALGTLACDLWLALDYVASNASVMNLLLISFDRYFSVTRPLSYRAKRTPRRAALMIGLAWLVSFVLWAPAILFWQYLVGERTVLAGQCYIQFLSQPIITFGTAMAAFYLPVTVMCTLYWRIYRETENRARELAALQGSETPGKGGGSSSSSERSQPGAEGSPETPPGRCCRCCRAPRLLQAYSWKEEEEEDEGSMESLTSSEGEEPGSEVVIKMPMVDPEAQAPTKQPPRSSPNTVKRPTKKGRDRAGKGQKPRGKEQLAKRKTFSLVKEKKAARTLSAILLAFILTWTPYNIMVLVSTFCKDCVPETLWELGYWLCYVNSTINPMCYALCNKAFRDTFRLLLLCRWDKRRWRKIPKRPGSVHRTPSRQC

D(3) dopamine receptor [14] = molecular target: T3, D(3) dopamine receptor (Homo sapiens, UniProt P35462); assay: Displacement of [3H]-spiperone from human dopamine D3 receptor expressed in CHO-K1 cell membranes after 90 mins by liquid scintillation counter method
Cytochrome P450 1A2 = molecular target: T4, Cytochrome P450 1A2 (Homo sapiens, UniProt P05177); assay: Inhibition of recombinant human CYP1A2 expressed in baculosomes preincubated for 10 mins followed by cofactor addition measured every minute for 10 mins using ethoxyresorufin as substrate by CYPEX assay
T4 sequence (P05177 whole entry): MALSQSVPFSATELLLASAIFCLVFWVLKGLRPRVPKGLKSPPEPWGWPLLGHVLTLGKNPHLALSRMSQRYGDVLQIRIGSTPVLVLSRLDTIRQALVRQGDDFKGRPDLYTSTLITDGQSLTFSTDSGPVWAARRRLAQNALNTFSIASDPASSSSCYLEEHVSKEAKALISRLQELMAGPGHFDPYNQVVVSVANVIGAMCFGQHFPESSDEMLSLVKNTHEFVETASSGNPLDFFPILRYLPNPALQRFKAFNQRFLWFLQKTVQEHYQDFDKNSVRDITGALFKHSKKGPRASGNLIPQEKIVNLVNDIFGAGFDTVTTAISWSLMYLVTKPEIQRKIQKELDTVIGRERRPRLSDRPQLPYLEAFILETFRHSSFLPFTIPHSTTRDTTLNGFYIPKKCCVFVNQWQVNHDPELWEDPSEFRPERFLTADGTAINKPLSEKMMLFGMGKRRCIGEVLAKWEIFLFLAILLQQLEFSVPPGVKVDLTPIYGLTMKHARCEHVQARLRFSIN

Cytochrome P450 2D6 = Cytochrome P450 2D6 (Homo sapiens, UniProt P10635); assay: Inhibition of recombinant human CYP2D6 expressed in baculosomes preincubated for 10 mins followed by cofactor addition measured every minute for 10 mins using 4-methylaminomethyl-7-methoxycoumarin as substrate by CYPEX assay
in vitro [15] = conditions: human, liver microsomes, CLH
D(3) dopamine receptor [16] = molecular target: T3, D(3) dopamine receptor; assay: Antagonist activity at human dopamine D3 receptor expressed in CHO-K1 cell membranes after 90 mins by [35S]GTP-gamma-S binding assay in presence of 3 nM quinelorane
D(2) dopamine receptor [17] = molecular target: T5, D(2) dopamine receptor (Homo sapiens, UniProt P14416); assay: Antagonist activity at human dopamine D2L receptor expressed in CHO cells assessed as inhibition of dopamine-mediated Ca+2 stimulation pretreated for 10 mins followed by addition of dopamine by fluo-4 AM dye-based FLIPR assay; type: cell-based
D(2) dopamine receptor [18] = molecular target: T5, D(2) dopamine receptor; assay: Displacement of [3H]-spiperone from human dopamine D2 receptor expressed in CHO-K1 cell membranes after 120 mins by liquid scintillation counter method
[19] = molecular target: Voltage-gated inwardly rectifying potassium channel KCNH2 (Homo sapiens, UniProt Q12809); assay: Inhibition of human ERG tail current expressed in HEK293 cells after 5 mins by patch clamp assay
Cytochrome P450 3A4 [20] = molecular target: T1, Cytochrome P450 3A4; assay: Inhibition of recombinant human CYP3A4 expressed in baculosomes preincubated for 10 mins followed by cofactor addition measured every minute for 10 mins using 7-benzyloxyquinoline as substrate by CYPEX assay
[21] = Fraction unbound in Sprague-Dawley rat brain
in vitro [22] = conditions: human, Caco-2
Description: Efflux ratio of permeability across basolateral to apical side in human Caco2 cells

[23] = Solubility of compound; type: physicochemical
[24] = Permeability across apical to basolateral side in human Caco2 cells; conditions: Caco-2, permeability
D(4) dopamine receptor = molecular target: T6, D(4) dopamine receptor (Homo sapiens, UniProt P21917); assay: Binding affinity to dopamine D4 receptor (unknown origin)
T6 sequence (P21917 whole entry): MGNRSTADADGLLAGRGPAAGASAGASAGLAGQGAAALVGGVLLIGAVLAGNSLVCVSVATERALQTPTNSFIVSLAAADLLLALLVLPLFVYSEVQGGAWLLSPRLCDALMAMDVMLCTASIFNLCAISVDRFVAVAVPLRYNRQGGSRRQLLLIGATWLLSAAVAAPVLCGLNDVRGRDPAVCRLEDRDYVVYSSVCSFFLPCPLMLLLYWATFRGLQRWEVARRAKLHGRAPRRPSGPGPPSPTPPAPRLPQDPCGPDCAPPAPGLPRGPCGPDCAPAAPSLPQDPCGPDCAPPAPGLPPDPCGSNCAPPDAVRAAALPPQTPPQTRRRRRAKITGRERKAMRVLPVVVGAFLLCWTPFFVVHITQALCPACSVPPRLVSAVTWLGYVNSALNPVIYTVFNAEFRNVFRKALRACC

T3 sequence (P35462 whole entry): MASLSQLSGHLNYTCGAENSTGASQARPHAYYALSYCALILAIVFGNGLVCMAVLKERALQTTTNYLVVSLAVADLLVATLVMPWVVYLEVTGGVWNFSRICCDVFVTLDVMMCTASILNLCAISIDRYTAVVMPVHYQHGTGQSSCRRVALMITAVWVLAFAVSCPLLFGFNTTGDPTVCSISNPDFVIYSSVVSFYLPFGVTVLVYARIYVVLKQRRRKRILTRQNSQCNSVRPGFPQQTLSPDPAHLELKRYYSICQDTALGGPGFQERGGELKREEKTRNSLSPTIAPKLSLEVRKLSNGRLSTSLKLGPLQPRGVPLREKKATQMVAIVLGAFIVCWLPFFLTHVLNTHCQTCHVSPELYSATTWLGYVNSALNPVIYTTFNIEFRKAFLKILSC
T5 sequence (P14416 whole entry): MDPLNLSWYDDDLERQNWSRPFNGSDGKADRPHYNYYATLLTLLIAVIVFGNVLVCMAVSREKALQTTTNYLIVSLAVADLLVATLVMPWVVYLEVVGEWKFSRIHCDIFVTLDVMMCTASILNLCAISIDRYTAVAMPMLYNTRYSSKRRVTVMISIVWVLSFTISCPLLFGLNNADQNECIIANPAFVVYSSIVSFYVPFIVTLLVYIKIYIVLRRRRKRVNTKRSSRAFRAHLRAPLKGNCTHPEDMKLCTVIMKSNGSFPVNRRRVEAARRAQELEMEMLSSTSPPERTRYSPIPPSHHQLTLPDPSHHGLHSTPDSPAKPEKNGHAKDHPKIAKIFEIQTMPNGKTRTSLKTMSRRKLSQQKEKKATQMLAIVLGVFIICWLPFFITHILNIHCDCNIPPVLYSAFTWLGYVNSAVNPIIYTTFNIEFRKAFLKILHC
T1 sequence (P08684 whole entry): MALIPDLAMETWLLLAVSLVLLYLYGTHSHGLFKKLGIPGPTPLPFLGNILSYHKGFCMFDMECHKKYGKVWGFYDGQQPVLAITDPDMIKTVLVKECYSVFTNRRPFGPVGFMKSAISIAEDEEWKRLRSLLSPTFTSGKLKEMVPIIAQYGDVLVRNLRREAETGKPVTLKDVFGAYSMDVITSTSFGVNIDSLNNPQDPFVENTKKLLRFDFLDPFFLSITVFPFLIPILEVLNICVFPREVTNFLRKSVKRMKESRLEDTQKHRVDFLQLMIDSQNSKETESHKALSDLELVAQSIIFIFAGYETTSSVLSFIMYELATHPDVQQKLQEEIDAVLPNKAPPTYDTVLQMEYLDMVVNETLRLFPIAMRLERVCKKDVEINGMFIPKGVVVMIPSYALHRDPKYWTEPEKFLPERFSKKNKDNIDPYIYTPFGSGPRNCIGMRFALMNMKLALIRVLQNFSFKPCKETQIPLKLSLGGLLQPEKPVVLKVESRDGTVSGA
Chain of Cytochrome P450 2D6 (P10635 whole entry): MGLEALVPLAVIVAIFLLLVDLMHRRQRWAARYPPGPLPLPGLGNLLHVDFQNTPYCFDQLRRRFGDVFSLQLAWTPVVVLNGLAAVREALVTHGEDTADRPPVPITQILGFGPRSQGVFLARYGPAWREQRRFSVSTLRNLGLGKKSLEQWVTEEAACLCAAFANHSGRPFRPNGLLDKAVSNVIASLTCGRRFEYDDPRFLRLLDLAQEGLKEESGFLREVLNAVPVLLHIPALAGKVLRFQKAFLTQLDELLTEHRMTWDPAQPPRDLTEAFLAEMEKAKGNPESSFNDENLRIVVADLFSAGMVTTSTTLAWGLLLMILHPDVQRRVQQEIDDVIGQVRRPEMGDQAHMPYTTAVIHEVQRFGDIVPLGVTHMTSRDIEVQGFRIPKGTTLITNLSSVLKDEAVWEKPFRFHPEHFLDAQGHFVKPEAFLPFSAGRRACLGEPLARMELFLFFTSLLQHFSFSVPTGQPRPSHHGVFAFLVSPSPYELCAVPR
Chain of Voltage-gated inwardly rectifying potassium channel KCNH2 (Q12809 whole entry): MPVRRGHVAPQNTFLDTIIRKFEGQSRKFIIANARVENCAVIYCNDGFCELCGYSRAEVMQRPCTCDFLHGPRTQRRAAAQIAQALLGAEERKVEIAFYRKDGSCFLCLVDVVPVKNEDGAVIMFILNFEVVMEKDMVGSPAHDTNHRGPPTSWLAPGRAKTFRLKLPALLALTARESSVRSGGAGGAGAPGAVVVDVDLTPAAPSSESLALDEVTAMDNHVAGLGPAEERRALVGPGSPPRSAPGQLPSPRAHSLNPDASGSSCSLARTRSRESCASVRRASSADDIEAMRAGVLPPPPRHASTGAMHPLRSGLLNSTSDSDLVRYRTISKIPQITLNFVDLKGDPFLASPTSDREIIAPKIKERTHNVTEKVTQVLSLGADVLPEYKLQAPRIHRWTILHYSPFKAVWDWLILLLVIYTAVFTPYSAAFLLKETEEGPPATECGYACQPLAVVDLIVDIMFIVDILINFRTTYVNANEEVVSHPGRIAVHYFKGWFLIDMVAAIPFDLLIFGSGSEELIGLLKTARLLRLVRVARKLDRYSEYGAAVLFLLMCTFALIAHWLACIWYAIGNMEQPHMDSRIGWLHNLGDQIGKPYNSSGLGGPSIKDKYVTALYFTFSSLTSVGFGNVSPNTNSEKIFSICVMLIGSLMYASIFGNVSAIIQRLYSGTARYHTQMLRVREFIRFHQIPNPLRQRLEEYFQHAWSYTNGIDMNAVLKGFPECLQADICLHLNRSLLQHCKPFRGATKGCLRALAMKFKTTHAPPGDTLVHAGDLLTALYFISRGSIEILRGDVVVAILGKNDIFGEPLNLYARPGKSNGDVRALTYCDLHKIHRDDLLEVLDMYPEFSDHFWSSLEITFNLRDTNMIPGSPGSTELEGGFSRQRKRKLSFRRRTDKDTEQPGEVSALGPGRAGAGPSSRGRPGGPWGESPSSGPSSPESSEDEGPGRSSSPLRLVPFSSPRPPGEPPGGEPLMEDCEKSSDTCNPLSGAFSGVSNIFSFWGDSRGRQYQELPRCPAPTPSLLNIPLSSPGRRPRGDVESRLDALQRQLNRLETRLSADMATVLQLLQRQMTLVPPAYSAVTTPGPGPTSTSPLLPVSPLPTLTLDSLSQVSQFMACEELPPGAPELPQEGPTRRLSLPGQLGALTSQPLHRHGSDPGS
Chain of Cytochrome P450 2C19 (P33261 whole entry): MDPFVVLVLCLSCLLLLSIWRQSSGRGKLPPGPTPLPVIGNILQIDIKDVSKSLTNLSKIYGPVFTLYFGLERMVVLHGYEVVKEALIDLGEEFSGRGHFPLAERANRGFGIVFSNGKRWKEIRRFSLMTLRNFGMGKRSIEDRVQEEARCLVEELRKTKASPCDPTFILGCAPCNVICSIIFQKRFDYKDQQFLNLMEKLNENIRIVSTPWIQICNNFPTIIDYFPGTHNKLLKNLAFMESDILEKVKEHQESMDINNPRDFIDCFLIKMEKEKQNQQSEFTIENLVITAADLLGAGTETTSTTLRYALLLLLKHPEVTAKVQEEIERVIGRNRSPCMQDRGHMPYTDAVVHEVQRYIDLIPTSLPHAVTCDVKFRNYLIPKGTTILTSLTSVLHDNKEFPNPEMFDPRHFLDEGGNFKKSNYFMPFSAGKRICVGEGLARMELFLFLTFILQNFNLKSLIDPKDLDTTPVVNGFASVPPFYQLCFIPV
Chain of Cytochrome P450 2C9 (P11712 whole entry): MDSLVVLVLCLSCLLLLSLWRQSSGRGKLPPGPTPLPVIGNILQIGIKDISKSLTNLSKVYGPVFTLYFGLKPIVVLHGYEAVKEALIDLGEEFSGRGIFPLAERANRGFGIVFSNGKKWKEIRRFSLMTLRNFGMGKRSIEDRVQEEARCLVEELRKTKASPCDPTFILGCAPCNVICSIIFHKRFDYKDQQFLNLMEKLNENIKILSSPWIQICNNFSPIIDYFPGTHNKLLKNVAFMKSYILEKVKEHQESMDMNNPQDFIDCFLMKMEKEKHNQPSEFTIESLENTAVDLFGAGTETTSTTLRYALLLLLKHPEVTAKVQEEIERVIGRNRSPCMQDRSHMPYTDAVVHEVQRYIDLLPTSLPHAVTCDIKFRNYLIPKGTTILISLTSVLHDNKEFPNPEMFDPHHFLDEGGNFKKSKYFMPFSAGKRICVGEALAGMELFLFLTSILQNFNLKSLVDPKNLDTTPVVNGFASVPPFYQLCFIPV
Chain of Muscarinic acetylcholine receptor M3 (P20309 whole entry): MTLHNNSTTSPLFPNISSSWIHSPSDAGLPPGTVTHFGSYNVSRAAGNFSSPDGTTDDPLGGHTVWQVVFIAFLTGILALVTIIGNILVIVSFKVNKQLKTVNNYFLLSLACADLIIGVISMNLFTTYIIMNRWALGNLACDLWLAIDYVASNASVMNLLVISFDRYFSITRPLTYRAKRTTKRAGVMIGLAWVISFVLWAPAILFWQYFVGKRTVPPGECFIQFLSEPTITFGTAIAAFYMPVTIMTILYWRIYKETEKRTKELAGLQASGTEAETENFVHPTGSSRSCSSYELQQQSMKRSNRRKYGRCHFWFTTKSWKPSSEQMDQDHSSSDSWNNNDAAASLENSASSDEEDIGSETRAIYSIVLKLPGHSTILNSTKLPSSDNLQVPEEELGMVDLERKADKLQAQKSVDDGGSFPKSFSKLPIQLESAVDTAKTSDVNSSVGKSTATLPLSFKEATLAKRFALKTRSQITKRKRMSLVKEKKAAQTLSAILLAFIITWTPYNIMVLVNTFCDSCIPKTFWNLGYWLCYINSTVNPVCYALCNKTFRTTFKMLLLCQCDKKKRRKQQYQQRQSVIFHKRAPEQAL

| Structure (SMILES) | Vd [2] | bioavailability (in vivo [3]) | half-life [4] | hepatic extraction ratio (in vivo [5]) | clearance [6] | microsomal CLint at 0.5 µM (in vitro [7]) | Fa [8] | IC50 (Cytochrome P450 2C19) | fraction unbound [9] | IC50 (Cytochrome P450 3A4 [10]) | IC50 (Cytochrome P450 2C9) | Ki [12] | Ki [13] | Ki (D(3) dopamine receptor [14]) | IC50 (Cytochrome P450 1A2) | IC50 (Cytochrome P450 2D6) | microsomal CLint at 0.5 µM (in vitro [15]) | Ki (D(2) dopamine receptor [18]) | IC50 [19] | IC50 (Cytochrome P450 3A4 [20]) | also measured |
| --- | --- | --- | --- | --- | --- | --- | --- | --- | --- | --- | --- | --- | --- | --- | --- | --- | --- | --- | --- | --- | --- |
| Cc1ncoc1-c1nnc(SCCCN2CC3CCN(c4ccc(C(F)(F)F)cc4F)C3C2)n1C (stereo in doubt; 8b) | 1.1 L/kg | 73% | 1.5 h | 0.07 | 20 mL/min/kg | 43 µL/min/mg | 79% | > 3 µM | 0.0025 | > 3 µM | > 3 µM | 0.245 µM | 0.11 µM | 0.00126 µM | > 3 µM | > 3 µM | 177 µL/min/mg | 0.0631 µM | 0.398 µM | > 3 µM | efflux ratio [1]: 0.55; Papp A→B [11]: 5.5 ×10⁻⁶ cm/s; Ki (D(3) dopamine receptor [16]): 0.00158 µM; Ki (D(2) dopamine receptor [17]): 0.0501 µM; fraction unbound [21]: 0.014 |
| Cn1c(SCCCN2CC3CCN(c4ccc(C(F)(F)F)cc4)C3C2)nnc1-c1cc[nH]c(=O)c1 (stereo in doubt; 55b) | 4.2 L/kg | 3% | 2.1 h | 0.4 | 37 mL/min/kg | 47 µL/min/mg | 5% | > 20 µM | 0.044 | > 20 µM | > 20 µM | 1.1 µM | 1.74 µM | 0.00794 µM | > 20 µM | > 20 µM | 33 µL/min/mg | 0.631 µM | 2.51 µM | > 20 µM | efflux ratio (in vitro [22]): 3.8; solubility [23]: 200 µg/mL (≈ 396 µM); Papp A→B [24]: 4.2 ×10⁻⁶ cm/s; Ki (D(4) dopamine receptor): 15.8 µM; fraction unbound [21]: 0.022 |
